From patent US20240390376A1, “METHOD FOR PREVENTING ADVERSE PREGNANCY OUTCOMES DUE TO USE OF SELECTIVE SEROTONIN REUPTAKE INHIBITORS (SSRI) DURING GESTATION” (Wisconsin Alumni Research Foundation, priority 2023, published 2024)
Read-outs that look alike come from different tables or passages of the source.

What was measured:
[1] = in vivo; cited from earlier work
[2] = system: placenta of mice; assay: Placenta immunostaining (Tunel, caspase 3, Ki67) and placental size, embryonic day 18.5 (FIG. 2B); conditions: fluoxetine 20 mg/kg
[3] = system: pregnant C57Bl/6J mice; conditions: experiment 1; for overall neonatal mortality: control 4.1%
Method: (§1) To investigate the role of ketanserin, an exemplary serotonin receptors 2A and 2C antagonist, on preventing SSRI-induced adverse pregnancy and neonatal outcomes, pregnant mice were treated with SSRI, serotonin, and SSRI/serotonin+ketanserin.

[4] = cited from earlier work
[5] = system: pregnant sheep; conditions: in vivo
Source text: FIG. 1G compares lamb birthweights between a treatment group and control group.
FIG. 1G compares the lamb birthweights between the treatment group and control group.

[6] = system: pregnant sheep; conditions: cited from earlier work
[7] = system: pregnant mice; assay: Experiment 2: as experiment 1, all mice received ketanserin one hour before treatment; type: in vivo; conditions: for litter size / overall neonatal mortality / maternal weight gain / neonatal weight on postnatal day 0: experiment 2; for litter size / overall neonatal mortality: ketanserin 1 mg/kg daily one hour before saline, fluoxetine or serotonin; for maternal weight gain / neonatal weight on postnatal day 0: ketanserin 1 mg/kg daily one hour before saline or serotonin
Method: as §1

[8] = system: pregnant mice; conditions: fluoxetine 2 mg/kg and 20 mg/kg vs control; dose-dependent; FIG. 1C
[9] = system: pregnant mice; assay: Number of mouse pups born in control and treatment groups (FIG. 2A); type: in vivo; conditions: serotonin 4 mg/kg, fluoxetine 2 mg/kg, ketanserin 1 mg/kg, vs saline control
[10] = system: SERT null mice; assay: Ketanserin rescue of neonatal mortality in SERT null mice; type: in vivo; conditions: 49.0% without ketanserin
Method: By performing RNA sequencing of placenta from heterozygous Sert+/− mice vs homozygous Sert−/− knockout mice and their respective offspring, it was confirmed that lack of maternal, but not placental or fetal SERT, is associated with placental changes: more than 2,100 genes were differentially expressed in the placenta when the dam was SERT−/−. Importantly, ketanserin also rescued the neonatal mortality in SERT null mice (49.0 vs 23.8% within 24 hours of birth).

[11] = fluoxetine 2 mg/kg or serotonin 5 mg/kg daily

Structure (SMILES)	number of pups born [1]	pup mortality [1]	overall neonatal mortality [3, 11] [%]	litter size [7]	overall neonatal mortality [7] [%]	number of pups born [9]	maternal weight gain [7] [g]	neonatal weight on postnatal day 0 [7] [g]	also measured
CNCCC(Oc1ccc(C(F)(F)F)cc1)c1ccccc1 (centres unmarked) [fluoxetine]	decrease	increase	11.6	7.4±0.6	24.3	significantly reduced	–	–	pregnancy rates [1]: decreases; Tunel-positive apoptotic cells in the placenta [2]: visualized; placental size ([2]; ketanserin 1 mg/kg): much reduced; placental transfer ([4]; in vivo): about 70%; average gestational length ([5]; female, sheep): 147.7 days; lamb birthweights [5]: weighed significantly less; placentome diameter [5]: significantly smaller; blood perfusion to the uterus ([6]; third trimester pregnant sheep): rapidly decreased; placentome growth ([6]; treated during the last month of gestation): decreased placentome growth; mouse pup mortality [8]: decidedly negative effect
NCCc1c[nH]c2ccc(O)cc12 [serotonin, 5-hydroxytryptamine]	–	–	32.3	7.0±0.5	22.8	significantly reduced	10.2 ± 0.6	1.197 ± 0.01	maternal weight gain between DPC10.5 and the day before parturition ([3]; fluoxetine 2 mg/kg or serotonin 5 mg/kg daily, DPC 10.5 until parturition): 8.0 ± 0.8 g; litter size ([3]; fluoxetine 2 mg/kg or serotonin 5 mg/kg daily, control 8.3): 5.2±0.5; neonatal weight on postnatal day 0 ([3]; serotonin 5 mg/kg daily): 1.138 ± 0.028 g; neonatal weight on postnatal day 1 ([3]; serotonin 5 mg/kg daily): 1.223 ± 0.028 g
CN[C@H]1CC[C@@H](c2ccc(Cl)c(Cl)c2)c2ccccc21 [sertraline]	decrease	increase	–	–	–	–	–	–	placental transfer ([4]; low concentrations in the fetal circulation): limited placental transfer
O=C(c1ccc(F)cc1)C1CCN(CCn2c(=O)[nH]c3ccccc3c2=O)CC1 [ketanserin, 3-[2-[4-(4-fluorobenzoyl)piperidin-1-yl]ethyl]-1H-quinazoline-2,4-dione]	–	–	–	7.0±0.3	8.5	–	11.4 ± 0.5	1.264 ± 0.01	neonatal mortality within 24 hours of birth [10]: 23.8%; placental changes and adverse pregnancy and neonatal outcomes caused by SSRI use ([7]; summary of the ketanserin studies): prevented most placental changes and adverse pregnancy and neonatal outcomes
